Reference: ChEMBL document CHEMBL1137364, “Synthesis and structure-activity relationships of uracil nucleotide derivatives and analogues as agonists at human P2Y2, P2Y4, and P2Y6 receptors” (J Med Chem, 2006)
The source made the active and inactive calls. The rule behind the calls is not given here.

What was measured:
P2Y purinoceptor 2 [1] = target: T1, P2Y purinoceptor 2 (Homo sapiens, UniProt P41231); assay: Agonist activity at human P2Y2 receptor expressed in 1321N1 cells assessed as IP accumulation by SPA; type: functional, cell-based
T1 sequence (P41231 whole entry): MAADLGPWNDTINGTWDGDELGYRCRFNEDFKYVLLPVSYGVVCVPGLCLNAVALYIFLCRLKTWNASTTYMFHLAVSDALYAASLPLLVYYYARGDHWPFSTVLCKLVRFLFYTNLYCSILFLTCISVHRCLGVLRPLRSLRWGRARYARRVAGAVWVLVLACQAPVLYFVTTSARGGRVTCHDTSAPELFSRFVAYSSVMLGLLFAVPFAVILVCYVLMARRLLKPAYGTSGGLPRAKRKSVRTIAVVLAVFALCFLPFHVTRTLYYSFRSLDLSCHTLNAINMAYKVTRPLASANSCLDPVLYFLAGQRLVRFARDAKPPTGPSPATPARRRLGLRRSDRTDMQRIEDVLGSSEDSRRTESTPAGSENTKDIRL

P2Y purinoceptor 4 [2] = target: T2, P2Y purinoceptor 4 (Homo sapiens, UniProt P51582); assay: Agonist activity at human P2Y4 receptor expressed in 1321N1 cells assessed as IP accumulation by SPA; type: functional, cell-based
Target sequence in this assay (P51582 whole entry): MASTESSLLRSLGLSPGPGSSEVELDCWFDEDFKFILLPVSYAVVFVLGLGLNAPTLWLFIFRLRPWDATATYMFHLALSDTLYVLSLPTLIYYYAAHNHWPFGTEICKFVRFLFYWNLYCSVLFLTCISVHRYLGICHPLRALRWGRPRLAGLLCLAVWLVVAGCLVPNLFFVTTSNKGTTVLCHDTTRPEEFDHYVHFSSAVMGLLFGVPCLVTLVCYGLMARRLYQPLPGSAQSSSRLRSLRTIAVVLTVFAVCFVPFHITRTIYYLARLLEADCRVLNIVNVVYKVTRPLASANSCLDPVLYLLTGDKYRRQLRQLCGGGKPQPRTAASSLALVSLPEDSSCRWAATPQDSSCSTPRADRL

P2Y purinoceptor 4 [3] = target: T2, P2Y purinoceptor 4; assay: Agonist activity at human P2Y4 receptor expressed in 1321N1 cells assessed as IP accumulation by SPA at 100 uM; type: functional, cell-based
Target sequence in this assay (P51582 whole entry): as above

P2Y purinoceptor 6 [4] = target: T3, P2Y purinoceptor 6 (Homo sapiens, UniProt Q15077); assay: Agonist activity at human P2Y6 receptor expressed in 1321N1 cells assessed as IP accumulation by SPA at 100 uM; type: functional, cell-based
Target sequence in this assay (Q15077 whole entry): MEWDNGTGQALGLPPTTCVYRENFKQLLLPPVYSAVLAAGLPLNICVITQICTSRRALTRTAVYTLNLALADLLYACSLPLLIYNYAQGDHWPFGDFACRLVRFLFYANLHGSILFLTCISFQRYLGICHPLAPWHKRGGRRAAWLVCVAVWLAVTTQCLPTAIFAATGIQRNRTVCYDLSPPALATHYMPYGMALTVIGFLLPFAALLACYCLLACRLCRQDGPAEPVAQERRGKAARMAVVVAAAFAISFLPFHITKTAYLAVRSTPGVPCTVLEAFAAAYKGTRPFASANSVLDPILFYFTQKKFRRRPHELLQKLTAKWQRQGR

P2Y purinoceptor 6 [5] = target: T3, P2Y purinoceptor 6; assay: Agonist activity at human P2Y6 receptor expressed in 1321N1 cells assessed as IP accumulation by SPA; type: functional, cell-based
Target sequence in this assay (Q15077 whole entry): as above

P2Y purinoceptor 6 [6] = target: T3, P2Y purinoceptor 6; assay: Agonist activity at human P2Y6 receptor expressed in 1321N1 cells assessed as IP accumulation by SPA at 1 uM; type: functional, cell-based
Target sequence in this assay (Q15077 whole entry): as above

P2Y purinoceptor 2 [7] = target: T1, P2Y purinoceptor 2; assay: Agonist activity at human P2Y2 receptor expressed in 1321N1 cells assessed as IP accumulation by SPA at 100 uM; type: functional, cell-based
P2Y purinoceptor 2 [8] = target: T1, P2Y purinoceptor 2; assay: Agonist activity at human P2Y2 receptor expressed in 1321N1 cells assessed as IP accumulation by SPA at 1 uM; type: functional, cell-based
P2Y purinoceptor 4 [9] = target: T2, P2Y purinoceptor 4; assay: Antagonist activity at human P2Y4 receptor assessed as inhibition of UTP-induced IP accumulation at 100 uM
Target sequence in this assay (P51582 whole entry, looked up): as the sequence (P51582 whole entry) above

P2Y purinoceptor 2 [10] = target: T1, P2Y purinoceptor 2; assay: Antagonist activity at human P2Y2 receptor assessed as inhibition of UTP-induced IP accumulation at 100 uM; type: functional
P2Y purinoceptor 6 [11] = target: T3, P2Y purinoceptor 6; assay: Antagonist activity at human P2Y6 receptor assessed as inhibition of UDP-induced IP accumulation at 100 uM
Target sequence in this assay (Q15077 whole entry, looked up): as the sequence (Q15077 whole entry) above

P2Y purinoceptor 4 [12] = target: T2, P2Y purinoceptor 4; assay: Agonist activity at human P2Y4 receptor expressed in 1321N1 cells assessed as IP accumulation by SPA at 1 uM; type: functional, cell-based
Target sequence in this assay (P51582 whole entry): as the sequence (P51582 whole entry) above

Row | Structure (SMILES) | EC50 (P2Y purinoceptor 2 [1]) [nM] | EC50 (P2Y purinoceptor 4 [2]) [nM] | Activity (P2Y purinoceptor 4 [3]) [%] | Activity (P2Y purinoceptor 6 [4]) [%] | EC50 (P2Y purinoceptor 6 [5]) [nM] | Activity (P2Y purinoceptor 6 [6]) [%] | Activity (P2Y purinoceptor 2 [7]) [%] | Activity (P2Y purinoceptor 2 [8]) [%] | Activity (P2Y purinoceptor 4 [9]) | Activity (P2Y purinoceptor 2 [10]) | Activity (P2Y purinoceptor 6 [11]) | Activity (P2Y purinoceptor 4 [12]) [%]
1 | O=c1ccn([C@@H]2O[C@H](COP(=O)(O)OP(=O)(O)OP(=O)(O)O)[C@@H](O)[C@H]2O)c(=O)[nH]1 [URIDINE TRIPHOSPHATE] | 43 | 87 | – | – | – | – | – | – | – | – | – | –
2 | Cn1c(=O)ccn([C@@H]2O[C@H](COP(=O)(O)O)[C@@H](O)[C@H]2O)c1=O | > 100000 | > 100000 | 3 | 51 | ≥ 100000 | 0 | 30 | 3 | – | – | – | –
3 | O=C(Cn1c(=O)ccn([C@@H]2O[C@H](COP(=O)(O)OP(=O)(O)OP(=O)(O)O)[C@@H](O)[C@H]2OP(=O)(O)O)c1=O)c1ccccc1 | ≤ 1000 | > 100000 | 0 | 75 | > 1000 | 0 | 107 | 54 | – | – | – | –
4 | Cn1c(=O)ccn([C@@H]2O[C@H](COP(=O)(O)OP(=O)(O)O)[C@@H](O)[C@H]2O)c1=O | > 1000 | > 100000 | 0 | 121 | > 1000 | 8 | 99 | 10 | – | – | – | –
5 | O=c1cc(O)n([C@@H]2O[C@H](COP(=O)(O)O)[C@@H](O)[C@H]2O)c(=O)[nH]1 | > 100000 | > 100000 | 11 | 0 | > 100000 | – | 11 | – | – | – | – | –
6 | O=c1[nH]c(=O)n([C@@H]2O[C@H](COP(=O)(O)OP(=O)(O)OP(=O)(O)O)[C@@H](O)[C@H]2O)cc1Br | 347 | 3460 | – | – | 291 | – | – | – | – | – | – | –
7 | O=C(Cn1c(=O)ccn([C@@H]2O[C@H](COP(=O)(O)OP(=O)(O)O)[C@@H](O)[C@H]2O)c1=O)c1ccccc1 | > 1000 | > 100000 | 11 | – | 70 | – | 85 | 22 | – | – | – | –
8 | CCCc1cc(=O)n([C@@H]2O[C@H](COP(=O)(O)OP(=O)(O)OP(=O)(O)O)[C@@H](O)[C@H]2O)c(=O)[nH]1 | > 1000 | > 100000 | 4 | 23 | > 100000 | 0 | 83 | 16 | inactive | inactive | inactive | –
9 | Cc1cc(=O)n([C@@H]2O[C@H](COP(=O)(O)O)[C@@H](O)[C@H]2O)c(=O)[nH]1 | > 100000 | > 100000 | 6 | 2 | > 100000 | – | 17 | – | – | – | – | –
10 | O=c1cc(O)n([C@@H]2O[C@H](COP(=O)(O)OP(=O)(O)OP(=O)(O)O)[C@@H](O)[C@H]2O)c(=O)[nH]1 | > 1000 | > 100000 | 12 | 43 | > 100000 | 0 | 80 | 6 | inactive | inactive | inactive | 11
11 | CCCc1cc(=O)n([C@@H]2O[C@H](COP(=O)(O)OP(=O)(O)OP(=O)(O)O)[C@H]3OP(=O)(O)O[C@H]32)c(=O)[nH]1 | > 1000 | > 100000 | 1 | 8 | > 100000 | – | 69 | 24 | – | – | – | –
12 | O=C(Cn1c(=O)ccn([C@@H]2O[C@H](COP(=O)(O)OP(=O)(O)OP(=O)(O)O)[C@@H](O)[C@H]2O)c1=O)c1ccccc1 | > 1000 | > 1000 | 54 | 100 | > 1000 | 27 | 103 | 38 | – | – | – | 10
13 | CCCc1cc(=O)n([C@@H]2O[C@H](COP(=O)(O)O)[C@@H](O)[C@H]2O)c(=O)[nH]1 | > 100000 | > 100000 | 5 | 26 | > 100000 | – | 9 | – | – | – | – | –
14 | O=c1ccn([C@@H]2O[C@H](COP(=O)(O)OP(=O)(O)OP(=O)(O)O)[C@@H](O)[C@H]2O)c(=S)[nH]1 | 50 | 1770 | – | 118 | > 1000 | 44 | – | – | – | – | – | –
15 | O=c1ccn([C@@H]2O[C@H](COP(=O)(O)OP(=O)(O)O)[C@@H](O)[C@H]2O)c(=O)[nH]1 [URIDINE_DIPHOSPHATE] | – | – | – | – | 42 | – | – | – | – | – | – | –
16 | O=c1ccn([C@@H]2O[C@H](COP(=O)(O)OP(=O)(O)O)[C@@H](O)[C@H]2O)c(=S)[nH]1 | > 1000 | > 1000 | 73 | – | 239 | – | 91 | 42 | – | – | – | 18
17 | Cc1cc(=O)n([C@@H]2O[C@H](COP(=O)(O)OP(=O)(O)O)[C@@H](O)[C@H]2O)c(=O)[nH]1 | > 1000 | > 100000 | 7 | 108 | > 1000 | 0 | 69 | 25 | – | – | – | –
18 | O=c1[nH]c(=O)n([C@@H]2O[C@H](COP(=O)(O)OP(=O)(O)C(Cl)(Cl)P(=O)(O)O)[C@@H](O)[C@H]2O)cc1Br | 354 | 3990 | – | – | 120 | – | – | – | – | – | – | –
19 | Cn1c(=O)ccn([C@@H]2O[C@H](COP(=O)(O)OP(=O)(O)OP(=O)(O)O)[C@@H](O)[C@H]2O)c1=O | 564 | 2920 | – | 109 | > 1000 | 2 | – | – | – | – | – | –
20 | CCCc1cc(=O)n([C@@H]2O[C@H](COP(=O)(O)OP(=O)(O)O)[C@@H](O)[C@H]2O)c(=O)[nH]1 | > 100000 | > 100000 | 0 | 23 | > 1000 | – | 28 | – | – | – | inactive | –
21 | O=c1[nH]c(=O)n([C@@H]2O[C@H](COP(=O)(O)O)[C@@H](O)[C@H]2O)cc1Br | > 1000 | > 100000 | 21 | 124 | > 1000 | 43 | 70 | 2 | – | – | – | –
22 | O=C(Cn1c(=O)ccn([C@@H]2O[C@H](COP(=O)(O)O)[C@@H](O)[C@H]2O)c1=O)c1ccccc1 | > 100000 | > 100000 | 2 | 16 | > 100000 | – | 9 | – | inactive | inactive | inactive | –
23 | O=c1ccn([C@@H]2O[C@H](COP(=O)(O)O)[C@@H](O)[C@H]2O)c(=S)[nH]1 | ≥ 100000 | > 100000 | 2 | 18 | > 100000 | – | 51 | 6 | – | – | – | –
